IC50 data for eleven molecules are collected here from patent US20250243210A1, “CRBN E3 LIGASE LIGAND COMPOUND, PROTEIN DEGRADER DEVELOPED BASED THEREON AND THEIR APPLICATIONS” (GLUETACS THERAPEUTICS (SHANGHAI) CO., LTD., priority 2021, published 2025).

For one experiment, the system named is Hep3B2.1-7. As to the kind of experiment: CCK-8 tumor cell proliferation, Hep3B2.1-7. The experiment is classed as cell-based, Human. The note with it: Hep3B2.1-7, 96 h, read-out: IC50 for inhibiting the proliferation of tumor cells, Hep3B2.1-7. The procedure: (§1) Determination of half inhibitory concentration (IC50) of the compounds against tumor cells:
(§2) The tumor cells used herein were cultured in a cell culture medium listed in table 6 at 37° C. in an incubator with 5% CO2. Prior to experimentation, all cells used were correctly identified by STR profiling, and tested negative for mycoplasma through routine screenings.
(§3) IC50 values of the compounds of the present disclosure (including the compounds in Table 4 and compounds of examples 1-72) were measured using the Meilun Cell Counting Kit-S kit from Dalian Meilun Biotech Co., Ltd. Assay details are as follows: tumor cells were seeded in a 96-well plate at a density listed in Table 7. After 24 h, 100 μL of the inoculated cells were treated with 0.5 μL of the compounds of the present disclosure (including the compounds in Table 4 and compounds of examples 1-72) at 10 different successively decreasing concentrations (starting at the highest concentration of 10 μM; 5-fold serial dilutions). After the cells were treated with the compounds of the present disclosure for a period of time (the treatment times listed in Table 7), the cell viability detection reagent was added to the culture medium for cell viability assessment according to the instructions provided with the CCK-8 kit. […] The growth inhibition of the compounds of the present disclosure on cells was plotted by Prism Graphpad software, and the IC50 values of the compounds of the present disclosure were calculated therefrom.

A further experiment has as its system MGC80-3. As to the kind of experiment: CCK-8 tumor cell proliferation, MGC80-3. The experiment is classed as cell-based, Human. The note with it: read-out: IC50 for inhibiting the proliferation of tumor cells, MGC80-3. Here is the method: as §1, §2, §3
The test system of another experiment is LNcap. As to the kind of experiment: CCK-8 tumor cell proliferation, LNcap. The experiment is classed as cell-based, Human. The note with it: 96 h, read-out: IC50 for inhibiting the proliferation of tumor cells, LNcap. The procedure:
as §1, §2, §3

The next experiment relates to WSU-DLCL2. As to the kind of experiment: CCK-8 tumor cell proliferation, WSU-DLCL2. The experiment is classed as cell-based, Human. The note with it: read-out: IC50 for inhibiting the proliferation of tumor cells, WSU-DLCL2. The procedure:
as §1
(§4) The tumor cells used herein were cultured in a cell culture medium listed in table 6 at 37° C. in an incubator with 5% CO2.
(§5) After the cells were treated with the compounds of the present disclosure for a period of time (the treatment times listed in Table 7), the cell viability detection reagent was added to the culture medium for cell viability assessment according to the instructions provided with the CCK-8 kit. […] The growth inhibition of the compounds of the present disclosure on cells was plotted by Prism Graphpad software, and the IC50 values of the compounds of the present disclosure were calculated therefrom.

A further experiment deals with MM.1R. Nature of the experiment: CCK-8 tumor cell proliferation, MM.1R. Format: cell-based. The note with it: 72 h, read-out: IC50 for inhibiting the proliferation of tumor cells, MM.1R. Here is the method: as §1, §4, §5
For another experiment, the system named is DU-145. As to the kind of experiment: CCK-8 tumor cell proliferation, DU-145. Format: cell-based, Human. The note with it: DU-145, 96 h, read-out: IC50 for inhibiting the proliferation of tumor cells, DU-145. Here is the method:
as §1, §4, §5

Where [1] appears, read: Homo sapiens, MGC-803, MGC80-3, 96 h.
The mark [2] stands for this setting: Homo sapiens, WSUDLCL2, WSU-DLCL2, 96 h.

Where two headings read alike, the source gives them in different places.

Take `CC1(C)[C@H](NC(=O)c2ccc(N3CCC(CN4C5CC4CN(c4cc6c(cc4F)C(=O)N(C4CCC(=O)NC4=O)C6=O)C5)CC3)nc2)C(C)(C)[C@H]1Oc1ccc(C#N)c(Cl)c1` (some centres unmarked) [GT-03404, N-((1r,3r)-3-(3-chloro-4-cyanophenoxy)-2,2,4,4-tetramethylcyclobutyl)-6-(4-((3-(2-(2,6-dioxopiperidin-3-yl)-6-fluoro-1,3-dioxoisoindolin-5-yl)-3,6-diazabicyclo[3.1.1]heptan-6-yl)methyl)piperidin-1-yl)nicotinamide]: the values for the IC50 in the experiment on Hep3B2.1-7 (Homo sapiens), with MGC80-3 (setting [1]) and with LNcap (Homo sapiens) were 100 to 500 nM, 100 to 500 nM and 500 to 1000 nM, respectively.
Turning to `CC1(C)[C@H](NC(=O)c2ccc(N3CCC(CN4CC5CCC(C4)N5c4ccc5c(c4)C(=O)N(C4CCC(=O)NC4=O)C5=O)CC3)nc2)C(C)(C)[C@H]1Oc1ccc(C#N)c(Cl)c1` (some centres unmarked) [GT-03425, N-((1r,3r)-3-(3-chloro-4-cyanophenoxy)-2,2,4,4-tetramethylcyclobutyl)-6-(4-((8-(2-(2,6-dioxopiperidin-3-yl)-1,3-dioxoisoindolin-5-yl)-3,8-diazabicyclo[3.2.1]octan-3-yl)methyl)piperidin-1-yl)nicotinamide], the IC50 with WSU-DLCL2 (setting [2]) is 50 to 100 nM; in the experiment with Hep3B2.1-7 (Homo sapiens), no more than 50 nM; in the experiment on MM.1R it was 100 to 500 nM; in the experiment on DU-145 (Homo sapiens), 500 to 1000 nM; in the experiment on MGC80-3 (setting [1]), no more than 50 nM; in the experiment with LNcap (Homo sapiens) it was 50 to 100 nM.
As for `CC1(C)[C@H](NC(=O)c2ccc(N3CCC(CN4C5CCC4CN(c4ccc6c(c4)C(=O)N(C4CCC(=O)NC4=O)C6=O)C5)CC3)nc2)C(C)(C)[C@H]1Oc1ccc(C#N)c(Cl)c1` (some centres unmarked) [GT-03426, N-((1r,3r)-3-(3-chloro-4-cyanophenoxy)-2,2,4,4-tetramethylcyclobutyl)-6-(4-((3-(2-(2,6-dioxopiperidin-3-yl)-1,3-dioxoisoindolin-5-yl)-3,8-diazabicyclo[3.2.1]octan-8-yl)methyl)piperidin-1-yl)nicotinamide], the IC50 is no more than 50 nM in the experiment with Hep3B2.1-7 (Homo sapiens), 100 to 500 nM in the experiment on MM.1R, 50 to 100 nM with MGC80-3 (setting [1]) and 50 to 100 nM in the experiment with LNcap (Homo sapiens).
On to `CC1(C)[C@H](NC(=O)c2ccc(N3CCC(CN4CC5CC(C4)N5c4ccc5c(c4)C(=O)N(C4CCC(=O)NC4=O)C5=O)CC3)nc2)C(C)(C)[C@H]1Oc1ccc(C#N)c(Cl)c1` (some centres unmarked) [GT-03427, N-((1r,3r)-3-(3-chloro-4-cyanophenoxy)-2,2,4,4-tetramethylcyclobutyl)-6-(4-((6-(2-(2,6-dioxopiperidin-3-yl)-1,3-dioxoisoindolin-5-yl)-3,6-diazabicyclo[3.1.1]heptan-3-yl)methyl)piperidin-1-yl)nicotinamide], for which the IC50 fell in the range of 100 to 500 nM with WSU-DLCL2 (setting [2]), 1000 to 5000 nM in the experiment with DU-145 (Homo sapiens), 100 to 500 nM in the experiment on MGC80-3 (setting [1]) and 500 to 1000 nM in the experiment with LNcap (Homo sapiens).
For the molecule `N#Cc1ccc(OC2CCC(NC(=O)c3ccc(N4CC5CCC(C4)N5CC4CCN(c5cc6c(cc5F)C(=O)N(C5CCC(=O)NC5=O)C6=O)CC4)nn3)CC2)cc1Cl` (centres unmarked) [GT-03450, N-((1r,4r)-4-(3-chloro-4-cyanophenoxy)cyclohexyl)-6-(8-((1-(2-(2,6-dioxopiperidin-3-yl)-6-fluoro-1,3-dioxoisoindolin-5-yl)piperidin-4-yl)methyl)-3,8-diazabicyclo[3.2.1]octan-3-yl)pyridazine-3-carboxamide], the IC50 in the experiment on WSU-DLCL2 (WSU-DLCL2, 96 h) lay in the range of 500 to 1000 nM; with MM.1R, 100 to 500 nM; in the experiment with DU-145, 1000 to 5000 nM; with MGC80-3 (MGC80-3, 96 h), 100 to 500 nM; in the experiment on LNcap, 100 to 500 nM.
`N#Cc1ccc(OC2CCC(NC(=O)c3ccc(N4C5CC4CN(CC4CCN(c6cc7c(cc6F)C(=O)N(C6CCC(=O)NC6=O)C7=O)CC4)C5)nn3)CC2)cc1Cl` (centres unmarked) [GT-03451, N-((1r,4r)-4-(3-chloro-4-cyanophenoxy)cyclohexyl)-6-(3-((1-(2-(2,6-dioxopiperidin-3-yl)-6-fluoro-1,3-dioxoisoindolin-5-yl)piperidin-4-yl)methyl)-3,6-diazabicyclo[3.1.1]heptan-6-yl)pyridazine-3-carboxamide]: the IC50 with WSU-DLCL2 (WSU-DLCL2, 96 h) was 100 to 500 nM; with MM.1R, 100 to 500 nM; in the experiment on DU-145, 1000 to 5000 nM; in the experiment with MGC80-3 (MGC80-3, 96 h), 500 to 1000 nM; in the experiment on LNcap it was 100 to 500 nM.
As to `CC1(C)[C@H](NC(=O)c2ccc(N3CCC(CN4C5CC4CN(c4ccc6c(c4)C(=O)N(C4CCC(=O)NC4=O)C6=O)C5)CC3)nc2)C(C)(C)[C@H]1Oc1ccc(C#N)c(Cl)c1` (some centres unmarked) [GT-03471, N-((1r,3r)-3-(3-chloro-4-cyanophenoxy)-2,2,4,4-tetramethylcyclobutyl)-6-(4-((3-(2-(2,6-dioxopiperidin-3-yl)-1,3-dioxoisoindolin-5-yl)-3,6-diazabicyclo[3.1.1]heptan-6-yl)methyl)piperidin-1-yl)nicotinamide], the IC50 was 1000 to 5000 nM in the experiment with WSU-DLCL2 (setting [2]), 100 to 500 nM in the experiment with Hep3B2.1-7 (Homo sapiens), 100 to 500 nM with MGC80-3 (setting [1]) and 500 to 1000 nM in the experiment on LNcap (Homo sapiens).
Take `CC1(C)[C@H](NC(=O)c2ccc(N3CCC(CN4C5CCC4CN(c4cc6c(cc4F)C(=O)N(C4CCC(=O)NC4=O)C6=O)C5)CC3)nc2)C(C)(C)[C@H]1Oc1ccc(C#N)c(Cl)c1` (some centres unmarked) [GT-03482, N-((1r,3r)-3-(3-chloro-4-cyanophenoxy)-2,2,4,4-tetramethylcyclobutyl)-6-(4-((3-(2-(2,6-dioxopiperidin-3-yl)-6-fluoro-1,3-dioxoisoindolin-5-yl)-3,8-diazabicyclo[3.2.1]octan-8-yl)methyl)piperidin-1-yl)nicotinamide]: the IC50 in the experiment on WSU-DLCL2 (setting [2]) was in the range of 100 to 500 nM; in the experiment on Hep3B2.1-7 (Homo sapiens), 100 to 500 nM; in the experiment with MM.1R, 100 to 500 nM; with DU-145 (Homo sapiens), 100 to 500 nM; in the experiment on MGC80-3 (setting [1]), 50 to 100 nM; with LNcap (Homo sapiens), 50 to 100 nM.
For the molecule `N#Cc1ccc(OC2CCC(NC(=O)c3ccc(N4CCC(CN5C6CC5CN(c5cc7c(cc5F)C(=O)N(C5CCC(=O)NC5=O)C7=O)C6)CC4)nn3)CC2)cc1Cl` (centres unmarked) [GT-03487, N-((1r,4r)-4-(3-chloro-4-cyanophenoxy)cyclohexyl)-6-(4-((3-(2-(2,6-dioxopiperidin-3-yl)-6-fluoro-1,3-dioxoisoindolin-5-yl)-3,6-diazabicyclo[3.1.1]heptan-6-yl)methyl)piperidin-1-yl)pyridazine-3-carboxamide], the IC50 in the experiment with WSU-DLCL2 (WSU-DLCL2, 96 h) lay in the range of 100 to 500 nM; in the experiment with MM.1R it was 100 to 500 nM; in the experiment with DU-145 it was 1000 to 5000 nM; in the experiment with MGC80-3 (MGC80-3, 96 h) it was 100 to 500 nM; in the experiment on LNcap, 100 to 500 nM.
With `N#Cc1ccc(OC2CCC(NC(=O)c3ccc(N4CCC(CN5C6CCC5CN(c5ccc7c(c5)C(=O)N(C5CCC(=O)NC5=O)C7=O)C6)CC4)nn3)CC2)cc1Cl` (centres unmarked) [GT-03489, N-((1r,4r)-4-(3-chloro-4-cyanophenoxy)cyclohexyl)-6-(4-((3-(2-(2,6-dioxopiperidin-3-yl)-1,3-dioxoisoindolin-5-yl)-3,8-diazabicyclo[3.2.1]octan-8-yl)methyl)piperidin-1-yl)pyridazine-3-carboxamide], the IC50 lay in the range of 100 to 500 nM in the experiment with WSU-DLCL2 (WSU-DLCL2, 96 h); 100 to 500 nM in the experiment with Hep3B2.1-7; 500 to 1000 nM with MM.1R; 1000 to 5000 nM with DU-145; 100 to 500 nM with MGC80-3 (MGC80-3, 96 h); 100 to 500 nM with LNcap.
For `N#Cc1ccc(OC2CCC(NC(=O)c3ccc(N4CCC(CN5C6CC5CN(c5ccc7c(c5)C(=O)N(C5CCC(=O)NC5=O)C7=O)C6)CC4)nn3)CC2)cc1Cl` (centres unmarked) [GT-03490, N-((1r,4r)-4-(3-chloro-4-cyanophenoxy)cyclohexyl)-6-(4-((3-(2-(2,6-dioxopiperidin-3-yl)-1,3-dioxoisoindolin-5-yl)-3,6-diazabicyclo[3.1.1]heptan-6-yl)methyl)piperidin-1-yl)pyridazine-3-carboxamide], the IC50 fell in the range of 100 to 500 nM in the experiment with WSU-DLCL2 (WSU-DLCL2, 96 h); 100 to 500 nM in the experiment on MM.1R; 1000 to 5000 nM in the experiment on DU-145; 100 to 500 nM in the experiment on MGC80-3 (MGC80-3, 96 h); 100 to 500 nM with LNcap.
